The text below walks through data of paper PMC5656653, “Evaluation of Ga-DOTA-(D-Asp)n as bone imaging agents: D-aspartic acid peptides as carriers to bone” (Scientific Reports, 2017).

A short description of data set [1]: Urine analyses by RP-HPLC after i.v. injection. Format: in vivo. The note with it: mice, urine from bladder at 1 h post-injection. The protocol:
^67Ga-DOTA-(L-Asp)14 was prepared according to a method described previously. ^67Ga-DOTA-(L-Asp)14 or ^67Ga-DOTA-(D-Asp)14 solution (370 kBq / 200 μL) was intravenously injected to 6-week-old male ddY mice. At 1 h post-injection, mice were sacrificed and their […] were taken from the bladders. After ultrafiltration (Microcon-30, Merck KGaA), the filtrate samples were analyzed by RP-HPLC at a flow rate of 1 mL/min with a gradient mobile phase from water containing 0.1% TFA to 20% methanol in water containing 0.1% TFA for 20 min.

On the set-up of data set [2]: method as in PMID 24391942. The note with it: normal mice; cited from earlier work.
Data set [3] can be described thus: Biodistribution experiments in normal mice after i.v. injection. The data set is classed as in vivo. The note with it: mouse, in vivo, iv; for tissue uptake dose at 10 min / tissue uptake dose at 1 h / tissue uptake dose at 3 h: male, ddY, total radioactivity, Biodistribution of radioactivity. The method in brief:
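Male ddY mice (6 weeks, 27–32 g) received tracer i.v. (37–740 kBq/100 μL); 4–5 per group sacrificed at 10, 60 and 180 min. Weighed tissues and whole left femur (bone) gamma-counted with background and decay correction.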

The structures appear in SMILES notation. Where a SMILES comes first, the peptide text is derived from it. The star is where a group is joined. DOTA = O=C(O)CN1CCN(CC(=O)O)CCN(CC(=O)*)CCN(CC(=O)O)CC1

For the compound `O=C(O)C[C@H](NC(=O)[C@H](CC(=O)O)NC(=O)[C@H](CC(=O)O)NC(=O)[C@H](CC(=O)O)NC(=O)[C@H](CC(=O)O)NC(=O)[C@H](CC(=O)O)NC(=O)[C@H](CC(=O)O)NC(=O)[C@H](CC(=O)O)NC(=O)[C@H](CC(=O)O)NC(=O)[C@H](CC(=O)O)NC(=O)[C@H](CC(=O)O)NC(=O)[C@H](CC(=O)O)NC(=O)[C@H](CC(=O)O)NC(=O)[C@H](CC(=O)O)NC(=O)CN1CCN(CC(=O)O)CCN(CC(=O)O)CCN(CC(=O)O)CC1)C(=O)O` [^67Ga-DOTA-(L-Asp)14, metal not drawn] ({DOTA}-DDDDDDDDDDDDDD-OH), the “Ratio of the intact complex in urine” value in data set [1] turned out to be 55.0 ± 13.9%. Besides, in data set [2], the “Accumulation in bone (in words)” value is “high accumulation in bone” and the “Blood clearance (in words)” value is recorded as “rapid blood clearance”.

As to `O=C(O)CC[C@@H](NC(=O)[C@@H](CCC(=O)O)NC(=O)[C@@H](CCC(=O)O)NC(=O)[C@@H](CCC(=O)O)NC(=O)[C@@H](CCC(=O)O)NC(=O)[C@@H](CCC(=O)O)NC(=O)[C@@H](CCC(=O)O)NC(=O)[C@@H](CCC(=O)O)NC(=O)[C@@H](CCC(=O)O)NC(=O)[C@@H](CCC(=O)O)NC(=O)[C@@H](CCC(=O)O)NC(=O)[C@@H](CCC(=O)O)NC(=O)[C@@H](CCC(=O)O)NC(=O)[C@@H](CCC(=O)O)NC(=O)CN1CCN(CC(=O)O)CCN(CC(=O)O)CCN(CC(=O)O)CC1)C(=O)O` [^67Ga-DOTA-(D-Glu)14, metal not drawn], the tissue uptake dose at 10 min came to 2.09 %ID in data set [3] (Blood); 11 %ID in data set [3] (Bone (Femur)); 0.05 %ID in data set [3] (Brain); 0.79 %ID in data set [3] (Heart); 13.4 %ID in data set [3] (Kidney); 0.42 %ID in data set [3] (Large-intestine). Further, the tissue uptake dose at 10 min in data set [3] (Liver) worked out at 0.46 %ID; in data set [3] (Lung) it was 1.65 %ID; in data set [3] (Muscle), 0.78 %ID; in data set [3] (Pancreas) it was 0.68 %ID; in data set [3] (Small-intestine) it was 0.37 %ID; in data set [3] (Spleen), 0.37 %ID. For the same compound, in data set [3] (Stomach), the tissue uptake dose at 10 min was found to be 0.29 %ID. In addition, the tissue uptake dose at 1 h in data set [3] (Blood) came to 0.1 %ID; in data set [3] (Bone (Femur)), 11.8 %ID; in data set [3] (Brain), 0.01 %ID; in data set [3] (Heart), 0.08 %ID; in data set [3] (Kidney), 10.6 %ID; in data set [3] (Large-intestine), 0.18 %ID. The tissue uptake dose at 1 h was 0.12 %ID in data set [3] (Liver); 0.13 %ID in data set [3] (Lung); 0.19 %ID in data set [3] (Muscle); 0.13 %ID in data set [3] (Pancreas); 0.22 %ID in data set [3] (Small-intestine); 0.06 %ID in data set [3] (Spleen). Further, the tissue uptake dose at 1 h in data set [3] (Stomach) stood at 0.19 %ID. Also, the tissue uptake dose at 3 h turned out to be 0.01 %ID in data set [3] (Blood); 12.2 %ID in data set [3] (Bone (Femur)); 0.01 %ID in data set [3] (Brain); 0.05 %ID in data set [3] (Heart); 6.59 %ID in data set [3] (Kidney); 0.25 %ID in data set [3] (Large-intestine). Further, the tissue uptake dose at 3 h in data set [3] (Liver) turned out to be 0.08 %ID; in data set [3] (Lung) it was 0.04 %ID; in data set [3] (Muscle), 0.02 %ID; in data set [3] (Pancreas) it was 0.06 %ID; in data set [3] (Small-intestine), 0.15 %ID; in data set [3] (Spleen) it was 0.03 %ID. In addition, the tissue uptake dose at 3 h in data set [3] (Stomach) worked out at 0.29 %ID. Also, the “Accumulation of radioactivity in bone (in words)” value in data set [3] was “high accumulation and retention of radioactivity in bone”. Besides, in data set [3], the “Clearance from the blood (in words)” value is reported as “rapid clearance from the blood”. Further, in data set [3], the “Radioactivity in the kidneys (in words)” value was “retained”.
